# Measurements published in US7645740B2, “Peptide sequence found in Laminin 5 for treating skin impairments” (Laboratoires d'Anjou Centre National de la Recherche …, priority 2004, dated 2010).
# How the values were obtained:
# Type in all cases: cell-based, human
# [1] = tested on: HT1080 cells; assay: Cell proliferation test (XTT), HT1080; settings: HT1080, peptide 0.5% and 1%, serum-free medium, 5th hour
# Protocol: HT1080 cells (A) and HBL100 cells (B) were seeded in 96-well plates at a rate of 10,000 cells per well. After 24 hours, the culture medium was removed and replaced with serum-free medium containing the peptide quantities given in the graphs and reagent XTT. The plates were then placed in the incubator at 37° C. and absorbance readings were taken at 1 h, 2 h, 3 h, 4 h and 5 h. Peptide-free controls were carried out on the same plate.
# The effect of the peptide on cell proliferation was analysed with the aid of a calorimetric test (Cell Proliferation Kit XTT, Roche Diagnostics, Meylan, France) on the cells use for the cell adhesion test, i.e. HT1080, A431, HBL100 cells and normal human keratinocytes from young and elderly individuals.
# The chemical reaction used in the test is based on the production of NADPH by living cells, leading to the reduction of yellow tetrazolium XTT salts to orange formazan salts. Absorbance was measured at 490 nm using an ELISA plate reader. Cells were seeded in 96-well plates at a rate of 10,000 cells per well (6 wells/condition) in KBM-2 culture medium. After 24 hours in culture at 37° C. with 5% CO2, the culture medium was removed and replaced with serum-free medium containing the peptide quantities given in the graphs and the test reagent. The plates were then placed in the incubator at 37° C. and absorbance readings were taken at 1 h, 2 h, 3 h, 4 h and 5 h. […]
# [2] = tested on: NHKs; assay: Effect of the peptide in soluble form on keratinocyte behaviour in culture
# Protocol: NHKs were seeded in 12-well plates at a rate of 5,000 cells per well. After 24 hours, the culture medium was removed and replaced with new medium containing 5%, 2.5%, 1.25%, 0.6% and 0.3% peptide (B—F). A peptide-free control was carried. The plates were then placed in the incubator at 37° C. for 48 hours. Observations were made with an Axiovert 40 Zeiss microscope. Bar=50 μm
# Observation at higher magnification of the cell colonies described in FIG. 6 using an Axiovert 40 Zeiss microscope equipped with a PlasDisc interferential block. Bar=50 μm
# Keratinocytes were seeded in 12-well plates (Costar) at a rate of 5,000 cells per well in KBM-2 medium. After 24 hours in culture at 37° C. with 5% CO2, the culture medium was removed and replaced with KBM-2 medium containing the peptide quantities given in the figures (a peptide-free control was also carried out). After 24 hours in culture, the same quantity of peptide was added to the culture medium and the experiment was stopped after a further 24 hours in culture. Microscope analyse was carried out without preliminary fixation using an Axiovert 40 Zeiss microscope coupled to a Coolsnap camera (Roper Scientific, Evry, France).
# [3] = tested on: NHKs; assay: Cell adhesion of NHKs to peptides co-immobilized with laminin 5
# Protocol: Peptides 1, 2 and 3 (variable quantities indicated) and laminin 5 (fixed quantity 0.2 mg) were co-immobilized in 96-well plates. 5×104 NHKs were deposited in each well and plates were incubated at 37° C. for 1 hour. After washing, attached cells were fixed and cell adhesion was measured as described in the methodology section. Cell adhesion in the presence of the peptide is given as a percentage of cell adhesion obtained with laminin 5 alone. Cells were observed by phase contrast microscopy then photographed. Bar=50 μm.
# A decreasing range of LN5 (prepared in the laboratory) and COL4 (BD Biosciences, Le Pont de Claix, France) quantities was made up by successive dilution in PBS. These solutions were immediately distributed into a 96-well culture plate (Costar) at a rate of 100 μl per well. The experiment was conducted in exactly the same way as the experiment described in example 2. The results are given in the form of a graph with the absorbance values representing adhesion on the ordinate and the various substrate concentrations on the abscissa. Attached cells were photographed by phase contrast microscopy.
# In order to analyse the effect of the peptide on cell adhesion to DEJ proteins, peptide TALRIRATYGEY (SEQ ID NO.1) (peptide 1) was co-immobilized with LN5 (FIG. 14) and COL4 (FIG. 15). The fixed quantity of matrix protein (LN5 and COL4) and the variable quantity of peptide are given on the graph (FIGS. 14 and 15). Peptides 2 and 3 (described in example 1) were used as controls for the experiment. The adhesion tests were carried out with NHK under the same conditions as the experiment given in FIG. 13 (50,000 cells per well). A peptide-free control representing 100% adhesion (LN5 only and COL4 only) was used to allow analysis of the effect of adhesion relating to the presence of the peptide. The results are given as a percentage of this control.
# [4] = tested on: NHK-old; assay: Cell adhesion of NHK-old to peptide co-immobilized with laminin 5
# Protocol: The peptide (variable quantities indicated) and laminin 5 (fixed quantity 0.2 mg) were co-immobilized in 96-well plates. 3×104 NHK-8 years and 3×104 NHK-63 years were deposited in each well and plates were incubated at 37° C. for 1 hour. After washing, attached cells were fixed and cell adhesion was measured as described in the methodology section. Cell adhesion in the presence of the peptide is given as a percentage of cell adhesion obtained with laminin 5 alone.
# The effect of peptide TALRIRATYGEY (SEQ ID NO. 1) on adhesion to LN5 was verified with NHK-old (FIG. 16). NHK-young ([…]) was tested in parallel and 30,000 cells/well were used in both cases (NHK-old is always limiting as it is obtained in lower amounts). In general, the results obtained in the course of this experiment are less marked than those in the experiment presented in FIG. 14 since (1) the number of cells is lower (30,000 instead of 50,000) and (2) the peptide range tested is also smaller. […] This effect, less marked than the effect found with NHK-young, is probably linked to the decreased adhesion with age of NHK-old to peptide TALRIRATYGEY (SEQ ID NO.1) (FIG. 6).
sequence,measurement,setting,value
TALRIRATYGEY (Human laminin 5) [Peptide 1],mean increase in cell proliferation compared to the control,[1],8%
same,cell morphology vs control cells,"[2]; NHKs cultured with the peptide, higher magnification (FIG. 12)",no morphological difference
same,effect of peptide added to culture medium on colony formation,"[2]; NHKs, 5%, 2.5%, 1.25%, 0.6% and 0.3% peptide in medium, 48 hours, vs peptide-free control",faster formation of cohesive colonies
same,effect on adhesion of NHKs to LN5 (co-immobilized),"[3]; laminin 5 fixed quantity 0.2 mg, 50,000 cells per well, percentage of LN5 alone",gradual and significant increase
same,"change of adhesion to LN5, on average","[3]; peptide quantity of 0.21 to 0.87 μg/well, LN5 alone = 100%",doubled
same,effect on adhesion of NHK-old to LN5 (co-immobilized),"[4]; NHK-63 years, 30,000 cells/well, laminin 5 fixed quantity 0.2 mg",potentializing effect
same,effect on NHK-old adhesion to LN5 compared with NHK-young,"[4]; NHK-old vs NHK-young, 30,000 cells/well",less marked
